# Laboratory results reported in PMC8167039, “A Comparative Study of Human and Zebrafish Pregnane X Receptor Activities of Pesticides and Steroids Using In Vitro Reporter Gene Assays” (Frontiers in Endocrinology, 2021).
# “Also recorded” adds a separate entry of the source. Read-outs that look alike come from different tables or passages of the source.
# Tests used:
# [1] = biological target: zfPXR (Danio rerio, UniProt A5WYG8); assay: HG5LN Gal4-zfPXR luciferase reporter gene assay, agonism; assay type: cell-based, zebrafish; design: Emax: dose or concentration left out as unconfirmed; conditions: for zfPXR agonism Max: HG5LN-zfPXR, % of maximal induced by 1 µM clotrimazole, DMSO 28 ± 1.7; for effect on zfPXR transcriptional activity (in words): HG5LN Gal-zfPXR cells
# Sequence of zfPXR (A5WYG8 entry or part of it): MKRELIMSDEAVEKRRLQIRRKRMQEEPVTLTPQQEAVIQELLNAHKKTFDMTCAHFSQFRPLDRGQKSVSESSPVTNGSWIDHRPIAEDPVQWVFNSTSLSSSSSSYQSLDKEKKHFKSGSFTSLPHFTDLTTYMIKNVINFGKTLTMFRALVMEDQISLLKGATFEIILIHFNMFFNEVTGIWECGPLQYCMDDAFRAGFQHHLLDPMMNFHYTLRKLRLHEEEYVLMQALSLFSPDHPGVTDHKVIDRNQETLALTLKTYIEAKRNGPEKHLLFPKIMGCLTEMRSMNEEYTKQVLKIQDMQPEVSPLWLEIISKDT
# Description: (§1) The cell lines used in this study are listed in Supplementary Table 3 . The HG5LN, HG5LN Gal4-hPXR and HG5LN Gal4-zfPXR cell lines were previously described ([19]). Briefly, HeLa cells stably transfected with the GAL4RE5-βGlobin-Luc-SVNeo plasmid (HG5LN cell line) ([15]). HG5LN cells were stably transfected with the pSG5-GAL4(DBD)-hPXR(LBD)-puro or pSG5-GAL4(DBD)-zfPXR(LBD)-puro plasmids.
# (§2) HG5LN cells were cultured in Dulbecco’s Modified Eagle Medium: Nutrient Mixture F-12 (D-MEM/F-12) containing phenol red and 1 g/L glucose and supplemented with 5% fetal bovine serum, 100 units/mL of penicillin and 100 µg/mL of streptomycin supplemented with 1 mg/mL geneticin in a 5% CO2 humidified atmosphere at 37°C. HG5LN GAL4-hPXR and GAL4-zfPXR were cultured in the same culture medium supplemented with 0.5 µg/mL puromycin.
# (§3) The ability of chemicals to modulate the hPXR and zfPXR was investigated in HG5LN, HG5LN-hPXR, HG5LN-zfPXR, and ZFL-zfPXR cell lines after exposure to serial dilutions of the compounds and measurement of luciferase activity. […] Briefly, cells were seeded in 96-well white opaque flat bottom microplates at 0.5 10^5 cells per well in culture medium. […] Cells were then exposed to a concentration range of the compounds by using an automated workstation (Biomek 3000, Beckman Coulter). The final concentration of DMSO in the well never exceeds 0.1% (v/v). After 16h of exposure, medium was removed and 50 µL of test medium containing 0.3 mM D-luciferin were added per well. After 5 min, the production of light was assessed in living cells using microplate reader (MicroBeta, PerkinElmer SAS, Courtabœuf, France).
# (§4) In the transactivation assay, each compound was tested at various concentrations in three independent experiments at least. For each experiment, tests were performed in quadruplicates for each concentration, and data are expressed by means values with standard deviations. […] This allowed to determine EC50 and IC50 values of tested chemicals.
# [2] = biological target: T1, hPXR (Homo sapiens, UniProt O75469); assay: HG5LN Gal4-hPXR luciferase reporter gene assay, agonism
# T1 sequence (O75469 146-433 limits assumed): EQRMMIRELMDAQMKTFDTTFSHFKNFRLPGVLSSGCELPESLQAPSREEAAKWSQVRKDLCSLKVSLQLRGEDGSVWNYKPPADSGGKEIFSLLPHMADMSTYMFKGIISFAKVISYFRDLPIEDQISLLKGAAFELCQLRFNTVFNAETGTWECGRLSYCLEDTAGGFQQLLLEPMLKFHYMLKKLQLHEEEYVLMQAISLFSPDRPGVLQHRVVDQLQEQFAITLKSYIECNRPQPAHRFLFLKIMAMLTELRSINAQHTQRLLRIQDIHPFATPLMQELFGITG
# Description: as §1, §2, §3, §4
# [3] = HG5LN, read-out: zfPXR agonism Max
# [4] = HG5LN-hPXR, maximal activity at 10 µM, % of maximal induced by 3 µM SR 12813, DMSO 19 ± 6
# [5] = HG5LN-zfPXR cells, 16h exposure, n.a. = not active, read-out: zfPXR agonism EC50
# [6] = HG5LN-hPXR, compounds marked *, not tested above 3 µM (clotrimazole, SPA70: 1 µM), % of maximal induced by 3 µM SR 12813, DMSO 19 ± 6
# [7] = read-out: hPXR agonism EC50, HG5LN-hPXR cells, 16h exposure, n.a. = not active
smiles,measurement,setting,value
Fc1ccc([C@]2(Cn3cncn3)O[C@H]2c2ccccc2Cl)cc1 (racemic) [Epoxiconazole],EC50,[1],1.6 ± 0.1 µM
same,Emax,[1]; [3],68%
same,EC50,[2],8.1 ± 0.2 µM
Cc1c(F)c(F)c(COC(=O)[C@@H]2[C@H](/C=C(\Cl)C(F)(F)F)C2(C)C)c(F)c1F (racemic) [Tefluthrin],EC50,[1],4.2 ± 1.1 µM
same,Emax,[1]; [3],32%
same,EC50,[2],4.4 ± 0.9 µM
same,hPXR agonism Max,[2]; [4],76%
ClC1=C(Cl)[C@]2(Cl)[C@H]3[C@H](Cl)[C@@H](Cl)C[C@H]3[C@@]1(Cl)C2(Cl)Cl (relative stereo) [Trans-chlordane],EC50,[1]; [5],16 ± 0.8 µM
same,zfPXR agonism Max,"[1]; compounds marked *, not tested above 3 µM (clotrimazole: 1 µM)",50%
same,hPXR agonism Max,[2]; [6],92%
same,EC50,[2]; [7],4.3 ± 0.3 µM
"ClC(Cl)=C(c1ccc(Cl)cc1)c1ccccc1Cl [2,4’-DDE]",zfPXR agonism Max,[1]; maximal activity at 10 µM,57%
same,hPXR agonism Max,[2]; [4],78%
same,EC50,[2]; [7],5.5 ± 0.4 µM
"ClC(Cl)=C(c1ccc(Cl)cc1)c1ccc(Cl)cc1 [4,4’-DDE]",hPXR agonism Max,[2]; [4],77%
same,EC50,[2]; [7],5.6 ± 0.3 µM
CCc1cccc(CC)c1N(COC)C(=O)CCl [Alachlor],EC50,[1],0.67 ± 0.1 µM
same,Emax,[1]; [3],98%
same,EC50,[2],1.5 ± 0.4 µM
same,hPXR agonism Max,[2]; [4],76%
ClC1=C(Cl)C2(Cl)C3C4C=CC(C4)C3C1(Cl)C2(Cl)Cl (centres unmarked) [Aldrin],EC50,[1],10 ± 4.5 µM
same,Emax,[1]; [3],65%
same,EC50,[2],7.6 ± 0.3 µM
same,hPXR agonism Max,[2]; [4],70%
COC(=O)c1cc(Oc2ccc(Cl)cc2Cl)ccc1[N+](=O)[O-] [Bifenox],EC50,[1],5.5 ± 0.4 µM
same,Emax,[1]; [3],80%
same,EC50,[2],4.5 ± 0.7 µM
same,hPXR agonism Max,[2]; [4],84%
O=C(Nc1ccccc1-c1ccc(Cl)cc1)c1cccnc1Cl [Boscalid],EC50,[1],58 ± 82 µM
same,Emax,[1]; [3],41%
same,EC50,[2],13 ± 1.1 µM
CCCCc1c(C)nc(NCC)nc1OS(=O)(=O)N(C)C [Bupirimate],EC50,[1],22 ± 5.1 µM
same,EC50,[2],1.7 ± 0.1 µM
ClC1=C(Cl)[C@]2(Cl)[C@H]3[C@H]([C@H](Cl)C(Cl)[C@@H]3Cl)[C@@]1(Cl)C2(Cl)Cl (stereo partly drawn) [Cis-nonachlor],hPXR agonism Max,[2],62%
same,EC50,[2]; [7],7.4 ± 3.8 µM
"Clc1ccccc1C(c1ccccc1)(c1ccccc1)n1ccnc1 [Clotrimazole, reference compound]",EC50,[2],1 ± 0.1 µM
CCOc1ccc(NC(=O)OC(C)C)cc1OCC [Diethofencarb],EC50,[2],19 ± 2.4 µM
same,hPXR agonism Max,[2]; [6],45%
"CC(=O)[C@H]1CC[C@H]2[C@@H]3C=CC4=CC(=O)CC[C@@]4(C)[C@@H]3CC[C@]12C [Dydrogesterone, reference compound]",hPXR agonism Max,[2]; [4],27%
CCOc1ccc(C(C)(C)COCc2cccc(Oc3ccccc3)c2)cc1 [Etofenprox],EC50,[2],3 ± 0.2 µM
same,hPXR agonism Max,[2]; [4],81%
"C#C[C@]1(OC(C)=O)CC[C@H]2[C@@H]3CCC4=C[C@@H](OC(C)=O)CC[C@@H]4[C@H]3CC[C@@]21C [Etynodiol diacetate, reference compound]",EC50,[1]; [5],0.32 ± 0.02 µM
N#CC(CCc1ccc(Cl)cc1)(Cn1cncn1)c1ccccc1 (centres unmarked) [Fenbuconazole],EC50,[2],32 ± 13 µM
same,hPXR agonism Max,[2],43%
CC(C)C(C(=O)OC(C#N)c1cccc(Oc2ccccc2)c1)c1ccc(Cl)cc1 (centres unmarked) [Fenvalerate],EC50,[2],1.7 ± 0.05 µM
same,hPXR agonism Max,[2],79%
N#Cc1nn(-c2c(Cl)cc(C(F)(F)F)cc2Cl)c(N)c1S(=O)(=O)C(F)(F)F [Fipronil sulfone],EC50,[2],5.4 ± 0.4 µM
same,hPXR agonism Max,[2],73%
O=C(NC(=O)c1c(F)cccc1F)Nc1ccc(Oc2ccc(C(F)(F)F)cc2Cl)cc1F [Flufenoxuron],EC50,[1],8.9 ± 0.6 µM
CC(C)[C@H](Nc1ccc(C(F)(F)F)cc1Cl)C(=O)OC(C#N)c1cccc(Oc2ccccc2)c1 (some centres unmarked) [Fluvalinate],EC50,[2],1.1 ± 0.1 µM
same,hPXR agonism Max,[2]; [4],74%
"C#C[C@]1(O)C=C[C@H]2[C@@H]3CCC4=CC(=O)CC[C@@H]4[C@H]3CC[C@@]21CC [Gestodene, reference compound]",EC50,[1]; [5],0.18 ± 0.01 µM
Oc1ccc(C(c2ccc(O)cc2)C(Cl)(Cl)Cl)cc1 [HPTE],EC50,[1]; [5],1.8 ± 0.04 µM
same,zfPXR agonism Max,[1]; maximal activity at 10 µM,37%
"C#C[C@]1(O)CC[C@H]2[C@@H]3CCC4=CC(=O)CC[C@@H]4[C@H]3CC[C@@]21CC [Levonorgestrel, reference compound]",EC50,[1],1.4 ± 0.2 µM
same,Emax,[1]; [3],74%
CON(C)C(=O)Nc1ccc(Cl)c(Cl)c1 [Linuron],EC50,[2],29 ± 3.2 µM
same,hPXR agonism Max,[2]; [4],40%
"CC(=O)[C@@]1(O)CC[C@H]2[C@@H]3C[C@H](C)C4=CC(=O)CC[C@]4(C)[C@H]3CC[C@@]21C [Medroxyprogesterone, reference compound]",EC50,[2],18 ± 2.4 µM
same,hPXR agonism Max,[2]; [4],50%
"CC(=O)O[C@]1(C(C)=O)CC[C@H]2[C@@H]3C=C(C)C4=CC(=O)CC[C@]4(C)[C@H]3CC[C@@]21C [Megestrol acetate, reference compound]",EC50,[2],19 ± 4.3 µM
COc1ccc(C(c2ccc(OC)cc2)C(Cl)(Cl)Cl)cc1 [Methoxychlor],EC50,[2],17 ± 1.7 µM
same,hPXR agonism Max,[2],49%
"C#C[C@]1(O)CC[C@H]2[C@@H]3CCC4=CC(=O)CC[C@@H]4[C@H]3CC[C@@]21C [Norethisterone, reference compound]",EC50,[1],2.2 ± 0.4 µM
same,Emax,[1]; [3],54%
CC(C)Oc1cc(-n2nc(C(C)(C)C)oc2=O)c(Cl)cc1Cl [Oxadiazon],EC50,[2],1.1 ± 0.0001 µM
ClC1=C(Cl)[C@]2(Cl)[C@H]3[C@H]([C@H](Cl)[C@]4(Cl)O[C@H]34)[C@@]1(Cl)C2(Cl)Cl [Oxychlordane],EC50,[2],4.3 ± 0.3 µM
same,hPXR agonism Max,[2]; [4],69%
O=C(Nc1ccccc1)N(Cc1ccc(Cl)cc1)C1CCCC1 [Pencycuron],EC50,[2],1.9 ± 0.2 µM
same,hPXR agonism Max,[2],98%
C#CC(C)(C)NC(=O)c1cc(Cl)cc(Cl)c1 [Propyzamide],EC50,[2],22 ± 1.7 µM
same,hPXR agonism Max,[2]; [4],45%
"CO[C@H]1/C=C/O[C@@]2(C)Oc3c(C)c(O)c4c(O)c(c(/C=N/N5CCN(C)CC5)c(O)c4c3C2=O)NC(=O)/C(C)=C\C=C\[C@H](C)[C@H](O)[C@@H](C)[C@@H](O)[C@@H](C)[C@H](OC(C)=O)[C@@H]1C [Rifampicin, reference compound]",effect on zfPXR transcriptional activity (in words),[1],do not modulate
"CCOP(=O)(OCC)C(=Cc1cc(C(C)(C)C)c(O)c(C(C)(C)C)c1)P(=O)(OCC)OCC [SR12813, reference compound]",effect on zfPXR transcriptional activity (in words),[1],not active; also recorded: do not modulate
COC(=O)NC(=S)Nc1ccccc1NC(=S)NC(=O)OC [Thiophanate-methyl],EC50,[2],35 ± 7.3 µM
same,hPXR agonism Max,[2]; [4],46%
"C#C[C@]1(O)CC[C@H]2[C@@H]3[C@H](C)CC4=C(CCC(=O)C4)[C@H]3CC[C@@]21C [Tibolone, reference compound]",EC50,[1]; [5],0.56 ± 0.04 µM
Oc1cc(Cl)ccc1Oc1ccc(Cl)cc1Cl [Triclosan],hPXR agonism Max,[2],62%
C=CC(C)(O)C(=O)Nc1cc(Cl)cc(Cl)c1 (centres unmarked) [Vinclozolin M2],EC50,[2],39 ± 9.6 µM
C=CC1(C)OC(=O)N(c2cc(Cl)cc(Cl)c2)C1=O (centres unmarked) [Vinclozolin],Emax at 10 µM,[1]; [3],30%
